1 compound from US20110104290A1, “COMPOSITIONS FOR REDUCING BLOOD GLUCOSE LEVEL AND USES THEREOF” (priority 2008, published 2011) can be followed below.

The test relates to STZ-induced hyperglycemic rats. Put plainly: Anti-hyperglycemic effect in STZ-induced hyperglycemic rats (serum blood glucose level). The test is classed as in vivo, Sprague-Dawley (SD) rats. As for the experimental part: For the purpose of the present invention, the dietary supplement prepared in accordance with Example 1 is named Composition 1. Composition 1 is an herbal supplement used for control of blood glucose level. The purpose of this study was to assess the anti-hyperglycemic effect of Composition 1 tablet in STZ-induced hyperglycemic rats.
Sprague-Dawley (SD) rats weighing 230˜270 g were used to establish the hyperglycemic rat model. Animals were fasted for 18 hours before receiving a single intraperitoneal injection of 2% STZ at a dose of 40 mg/kg BW (2.0 ml/kg). Six SD rats were selected as the Blank Control Group and injected intraperitoneally with citric acid buffer at a dose of 2.0 ml/kg BW. All rats had free access to food and water after the injection. Blood samples were collected from rats' posterior orbits veins at 72 hours after the injection for determination of the blood glucose level. Successful establishment of hyperglycemic rat model was defined as a non-fasting venous blood glucose level≧13.8 mmol/L. […]
The clinical dose of Metformin for human is 1˜1.5 g/day, which is about 0.025 g/kg body weight/day for an adult. The administration dose of Metformin for rat was calculated to be 0.25 g/kg body weight/day, 10 times of human clinical dose. […]

Turning to `CN(C)C(=N)N=C(N)N` [Metformin], the “blood glucose levels compared to the Model Control Group” value (Metformin Control Group 0.25 g/kg/day, 3rd and 4th weeks after the beginning of administration, p<0.05) is given as “lower”. Moreover, the “decrease of end-point blood glucose level compared to level prior to the treatment” value (Metformin Control Group, 0.25 g/kg/day i.g., after the 4-week treatment) was determined as 59%.
